Data: PubChem BioAssay (NCI)
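Compound exposure: 48 hours, 5 concentrations, 96-well plates. The concentration for 50% growth inhibition is given as GI50. At the TGI there is no net growth.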

Key:
Test in all cases: growth of human tumour cells (NCI), 48 h
IGROV1 ovarian = system: IGROV1 ovarian
TK-10 renal = system: TK-10 renal
UO-31 renal = system: UO-31 renal
OVCAR-5 ovarian = system: OVCAR-5 ovarian
HT29 colon = system: HT29 colon
SNB-19 CNS = system: SNB-19 CNS
RPMI-8226 leukemia = system: RPMI-8226 leukemia
NCI-H460 lung = system: NCI-H460 lung
LOX IMVI melanoma = system: LOX IMVI melanoma

SMILES	TGI (IGROV1 ovarian)	TGI (TK-10 renal)	TGI (UO-31 renal)	TGI (OVCAR-5 ovarian)	TGI (HT29 colon)	TGI (SNB-19 CNS)	TGI (RPMI-8226 leukemia)	TGI (NCI-H460 lung)	GI50 (RPMI-8226 leukemia)	GI50 (IGROV1 ovarian)	GI50 (TK-10 renal)	GI50 (OVCAR-5 ovarian)	GI50 (HT29 colon)	GI50 (NCI-H460 lung)	GI50 (LOX IMVI melanoma)	TGI (LOX IMVI melanoma)	GI50 (SNB-19 CNS)	GI50 (UO-31 renal)
CN(C)CCNC(=O)c1cccc2ccc(-c3ccncc3)nc12	8.37 µM	5.57 µM	5.37 µM	5.63 µM	13.8 µM	9.5 µM												
Cc1cc(N(CCC#N)CCC#N)ccc1/C=C1\N=C(c2cc([N+](=O)[O-])ccc2Cl)N(c2cccc(Cl)c2)C1=O	> 100 µM	> 100 µM	> 100 µM	> 100 µM	> 100 µM	> 100 µM	> 100 µM	> 100 µM										
CCCCCCCC(=O)OCC/C=C/C1OC1C1OC(=O)/C=C\C=C\c2nc(oc2C)/C=C(/C)CCC2OC2C1OC(=O)NC(C)=O (stereo not drawn)	0.918 µM	0.232 µM		0.104 µM	1.12 µM	1.16 µM	1.04 µM	0.495 µM	0.0241 µM	0.0262 µM	0.0391 µM	0.0193 µM	0.0397 µM	0.0192 µM	0.0372 µM	0.648 µM	0.0605 µM	
CC(C)(CO)N1CCN(C(=S)Nc2ccccc2)CC1	> 100 µM	> 100 µM	> 100 µM	> 100 µM	> 100 µM	> 100 µM	> 100 µM	> 100 µM								> 100 µM		
COC1(OC)CC2OC1C1N=NN(C(=O)OC(C)(C)C)C21 (stereo not drawn)	> 100 µM		> 100 µM	> 100 µM	> 100 µM		> 100 µM	> 100 µM								> 100 µM		
CC/C=C\C[C@H](F)C/C=C1/C(=O)C=C[C@@H]1C/C=C\CCCC(=O)O	32.1 µM	27.4 µM	12.4 µM	21 µM	15 µM	25.4 µM	30.8 µM	30.9 µM	1.22 µM	9.97 µM	12.2 µM	8.18 µM	5.4 µM	9.35 µM	3.77 µM	7.97 µM	7.31 µM	5.78 µM
COc1ccc(-c2onc(N)c2-c2cc(OC)c3c(c2)OCO3)cc1	> 100 µM	> 100 µM	> 100 µM	> 94 µM	11.9 µM	> 100 µM	> 86 µM	21.1 µM	3.51 µM	8.44 µM	8.49 µM	6.74 µM	1.65 µM	3 µM	3.68 µM	> 100 µM	8.24 µM	10.5 µM
Cc1ccc2c(c1)Sc1c(ccc3ccccc13)N2	> 100 µM	> 100 µM	> 100 µM	> 100 µM	> 100 µM	> 100 µM	> 100 µM	> 100 µM	13.4 µM	6.48 µM	12.8 µM	> 100 µM	51.2 µM	5.37 µM	8.91 µM	> 100 µM	> 100 µM	3.82 µM
CC(C)(C)c1cc(CCC(=O)Nc2ccc(Cl)cc2)nc(NC#N)n1	> 100 µM	> 100 µM	> 100 µM	> 100 µM	> 100 µM	> 100 µM		> 100 µM								> 100 µM		
COCCCNC(=O)C1C(=O)C(=O)N(CCCOC)C1=O (stereo not drawn)	> 100 µM	> 100 µM	> 100 µM	> 100 µM	> 100 µM	> 100 µM	> 100 µM									> 100 µM		
O=C1c2cccc([N+](=O)[O-])c2C(=O)N1c1ncn[nH]1	> 100 µM	> 100 µM	> 100 µM	> 100 µM	> 100 µM	> 100 µM	> 100 µM	> 100 µM								> 100 µM		
O=C(O)CCSC(=O)Nc1ccc([N+](=O)[O-])cc1	> 100 µM	> 100 µM	> 100 µM		> 100 µM	> 100 µM	> 100 µM	> 100 µM								> 100 µM		
O=C(CCc1nnc2sc(-c3ccc(Cl)cc3Cl)nn12)c1nc2ccccc2[nH]1	6.35 µM	2.77 µM	2.24 µM	4.23 µM	2.01 µM	5.8 µM	2.63 µM	2.39 µM	0.422 µM	0.953 µM	1.29 µM	1.96 µM	0.374 µM	0.988 µM	0.233 µM	0.671 µM	1.41 µM	0.838 µM
O=C(CC1(O)C(=O)Nc2c(Cl)ccc(Cl)c21)c1ccc(F)cc1 (stereo not drawn)		> 100 µM	> 100 µM	> 100 µM	> 100 µM	> 100 µM	47.9 µM	> 100 µM								> 100 µM		
CC/C=C\C[C@@H](O)C/C=C1/C(=O)C=C[C@H]1C/C=C\CCCC(=O)OC	12.6 µM	24 µM	3.34 µM	12.1 µM	5.74 µM	19.4 µM	7.4 µM	11.8 µM	1.83 µM	3.31 µM	11.6 µM	3.35 µM	2.36 µM	3.45 µM	0.329 µM	1.51 µM	4.62 µM	1.73 µM
COc1ccc2nc3c(C(=O)NCCN(C)C)cccc3nc2c1	93.5 µM	34.3 µM	47.9 µM	81.3 µM	28.8 µM	37.9 µM		> 1 µM								17.9 µM		
O=C(N/C(=C\c1cccc([N+](=O)[O-])c1)c1nc2ccc([N+](=O)[O-])cc2[nH]1)c1ccccc1	74.4 µM	> 100 µM	58.9 µM	> 100 µM	> 100 µM	> 100 µM												
COc1ccc(NC(=O)CC(=O)N/N=C/c2ccc(N(CCC#N)S(C)(=O)=O)cc2)cc1	> 100 µM	> 100 µM	> 100 µM	> 100 µM	> 100 µM		> 100 µM	> 100 µM								> 100 µM		
O=[N+]([O-])c1ccc(C=NC2CCCCC2)cc1	> 100 µM	> 100 µM	> 100 µM	> 100 µM	> 100 µM	> 100 µM		> 100 µM								> 100 µM		
CCCC(=O)OCC1OC(n2cnc3c(=S)nc[nH]c32)C(OC(=O)CCC)C1OC(=O)CCC (stereo not drawn)	> 100 µM	> 100 µM	> 100 µM	> 100 µM	> 100 µM	> 100 µM		> 100 µM		10.3 µM	2.78 µM	4.76 µM	3.63 µM	8.13 µM	2.34 µM	> 100 µM	46.4 µM	7.53 µM
